From patent EP4483954A1 (Masarykova Univerzita, priority 2023, dated 2025) come the findings set out here.

The IC50 is the midpoint of a concentration-inhibition curve.

The target of this assay is T1, Haspin (h) (Homo sapiens, UniProt Q8TF76).
T1 construct: purchased Eurofins (KinaseProfiler)
T1 sequence (Q8TF76 1-798): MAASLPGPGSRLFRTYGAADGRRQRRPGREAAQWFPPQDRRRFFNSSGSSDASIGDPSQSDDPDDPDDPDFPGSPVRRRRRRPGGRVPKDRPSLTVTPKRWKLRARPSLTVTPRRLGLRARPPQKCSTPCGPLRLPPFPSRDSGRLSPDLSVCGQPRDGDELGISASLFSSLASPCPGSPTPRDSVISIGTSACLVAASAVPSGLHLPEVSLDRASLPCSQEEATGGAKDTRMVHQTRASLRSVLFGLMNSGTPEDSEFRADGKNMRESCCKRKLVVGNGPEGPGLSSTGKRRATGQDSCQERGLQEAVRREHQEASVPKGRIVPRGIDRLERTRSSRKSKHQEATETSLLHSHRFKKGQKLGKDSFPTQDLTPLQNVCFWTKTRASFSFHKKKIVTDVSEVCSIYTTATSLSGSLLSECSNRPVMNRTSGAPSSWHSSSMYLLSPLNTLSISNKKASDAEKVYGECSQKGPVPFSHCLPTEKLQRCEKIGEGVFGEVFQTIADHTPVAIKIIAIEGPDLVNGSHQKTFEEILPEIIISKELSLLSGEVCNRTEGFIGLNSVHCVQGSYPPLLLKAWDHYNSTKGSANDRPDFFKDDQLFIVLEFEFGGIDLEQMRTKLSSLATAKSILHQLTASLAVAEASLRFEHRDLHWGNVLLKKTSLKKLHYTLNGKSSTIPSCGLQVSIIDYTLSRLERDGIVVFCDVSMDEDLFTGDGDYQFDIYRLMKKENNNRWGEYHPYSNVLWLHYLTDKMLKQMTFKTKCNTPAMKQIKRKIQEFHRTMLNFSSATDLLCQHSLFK
Nature of the assay: radiometric kinase assay (KinaseProfiler, Eurofins), Haspin. Conditions: in vitro radiometric kinase assay, tested at 1 nM to 10 000 nM, no pre-incubation; read-out: inhibitory activities (IC50 values) Haspin. Type of assay: biochemical. On the procedure:
The compounds were profiled in the radiometric assays (KinaseProfiler, Eurofins).
Briefly, kinases were diluted in the buffer shown below prior to addition to the reaction mix: • CDKL3, TAF1L: 20 mM Tris/HCl pH 8.5, 0.2 mM EDTA, 0.1% β-mercaptoethanol, 0.01% Brij-35, 5% glycerol, 1 mg/ml BSA; • Haspin: 15 mM MOPS, 0.75 mM EDTA, 0.0075% Brij-35, 3.75% Glycerol, 150 mM NaCl, 0.1% β-mercaptoethanol, 1 mg/mLBSA; • CDKL4, CLK2, PIM1, TRB2: […], 1 mM EDTA, 0.01% Brij-35, 5% Glycerol, 0.1% β-mercaptoethanol, 1 mg/mL BSA.
All compounds were prepared to 50x final assay concentration in 100% DMSO. This working stock of the compound was added to the assay well as the first component in the reaction, followed by the remaining components as detailed in the general assay protocols below. There was no pre-incubation step between the compound and the kinase prior to initiation of the reaction.
Haspin (h) was incubated with 8 mM MOPS pH 7.0, 0.2 mM EDTA, 500 µM RARTLSFAEPG (SEQ ID NO. 3), 10 mM magnesium acetate and γ-^33P-ATP (specific activity and concentration as required). The reaction was initiated by the addition of the Mg/ATP mix. After incubation for 40 minutes at room temperature, the reaction was stopped by the addition of phosphoric acid to a concentration of 0.5%. An aliquot of the reaction was then spotted onto a filter and washed four times for 4 minutes in 0.425% phosphoric acid and once in methanol prior to drying and scintillation counting.
Kinase activity data were expressed as the percent remaining kinase activity in tested samples compared to the vehicle (DMSO) reactions. The compounds were tested at the following concentrations: 1 nM, 3 nM, 10 nM, 30 nM, 100 nM, 300 nM, 1000 nM, 3000 nM, and 10 000 nM; IC50 values and curve fits were then obtained.
Turning to `Cn1cc(-c2ccc3scc(-c4ccc5nccnc5c4)c3n2)cn1` [Preparative Example 49, 5-(1-methyl-1H-pyrazol-4-yl)-3-(quinoxalin-6-yl)thieno[3,2-b]pyridine], the IC50 is 20 to 99 nM.

As to `Cc1cc(Nc2ccc3scc(-c4ccncc4)c3n2)nn1C` [Preparative Example 102, N-(1,5-dimethyl-1H-pyrazol-3-yl)-3-(pyridin-4-yl)thieno[3,2-b]pyridin-5-amine], the IC50 was in the range of 100 to 499 nM. The result for `CSc1cn(C)nc1Nc1ccc2scc(-c3ccncc3)c2n1` [Preparative Example 106, N-(1-methyl-4-(methylthio)-1H-pyrazol-3-yl)-3-(pyridin-4-yl)thieno[3,2-b]pyridin-5-amine] reads 100 to 499 nM; that for `Cn1cc(C#N)c(Nc2ccc3scc(-c4ccns4)c3n2)n1` [Preparative Example 120, 3-((3-(isothiazol-5-yl)thieno[3,2-b]pyridin-5-yl)amino)-1-methyl-1H-pyrazole-4-carbonitrile], 20 to 99 nM; that for `c1nc2ccc(-c3csc4ccc(Nc5cn[nH]c5)nc34)cn2n1` [Preparative Example 134, 3-([1,2,4]triazolo[1,5-a]pyridin-6-yl)-N-(1H-pyrazol-4-yl)thieno[3,2-b]pyridin-5-amine], 100 to 499 nM.

As for `Cn1cc(-c2ccc3scc(-c4cc5ncccn5n4)c3n2)cn1` [Preparative Example 61, 5-(1-methyl-1H-pyrazol-4-yl)-3-(pyrazolo[1,5-a]pyrimidin-2-yl)thieno[3,2-b]pyridine], the IC50 was in the range of 100 to 499 nM. The figure for `Cn1cc(-c2ccc3scc(-c4cncnc4)c3n2)cn1` [Preparative Example 38, 5-(1-methyl-1H-pyrazol-4-yl)-3-(pyrimidin-5-yl)thieno[3,2-b]pyridine] is 100 to 499 nM; for `c1ccc(-n2ccc(-c3ccc4scc(-c5ccncc5)c4n3)n2)cc1` [Preparative Example 88, 5-(1-phenyl-1H-pyrazol-3-yl)-3-(pyridin-4-yl)thieno[3,2-b]pyridine] it is 500 to 3000 nM. On to `Cc1sc2ccc(-c3ccn(C)n3)nc2c1-c1ccncc1` [Preparative Example 143, 2-methyl-5-(1-methyl-1H-pyrazol-3-yl)-3-(pyridin-4-yl)thieno[3,2-b]pyridine], for which the IC50 lay in the range of 500 to 3000 nM. The figure for `CCOC(=O)c1cc(Nc2ccc3scc(-c4ccncc4)c3n2)nn1C` [Preparative Example 105, Ethyl 1-methyl-3-((3-(pyridin-4-yl)thieno[3,2-b]pyridin-5-yl)amino)-1H-pyrazole-5-carboxylate] is 3000 to 10000 nM; for `CCOC(=O)c1cn(C)nc1Nc1ccc2scc(-c3ccncc3)c2n1` [Preparative Example 107, Ethyl 1-methyl-3-((3-(pyridin-4-yl)thieno[3,2-b]pyridin-5-yl)amino)-1H-pyrazole-4-carboxylate] it is 3000 to 10000 nM; for `Cc1ccc(S(=O)(=O)n2ccc3c(-c4csc5ccc(-c6cnn(C)c6)nc45)ccnc32)cc1` [Preparative Example 44, 5-(1-methyl-1H-pyrazol-4-yl)-3-(1-tosyl-1H-pyrrolo[2,3-b]pyridin-4-yl)thieno[3,2-b]pyridine] it is 3000 to 10000 nM. The figure for `Cn1cc(-c2ccc3scc(-c4ccc5nncn5c4)c3n2)cn1` [Preparative Example 59, 3-([1,2,4]-triazolo[4,3-a]pyridin-6-yl)-5-(1-methyl-1H-pyrazol-4-yl)thieno[3,2-b]pyridine] is 100 to 499 nM. The result for `c1ccc(-c2csc3ccc(-c4cn[nH]c4)nc23)cc1` [Preparative Example 121, 3-phenyl-5-(1H-pyrazol-4-yl)thieno[3,2-b]pyridine] reads 100 to 499 nM; that for `Cn1cc(Nc2ccc3scc(-c4ccncc4)c3n2)cn1` [Preparative Example 97, N-(1-methyl-1H-pyrazol-4-yl)-3-(pyridin-4-yl)thieno[3,2-b]pyridin-5-amine], 100 to 499 nM; that for `c1ccc(-c2ccc3scc(-c4ccncc4)c3n2)nc1` [Preparative Example 111, 5-(pyridin-2-yl)-3-(pyridin-4-yl)thieno[3,2-b]pyridine], 100 to 499 nM. On to `Cn1cc(-c2ccc3scc(-c4ccc5nccn5c4)c3n2)cn1` [Preparative Example 57, 3-(imidazo[1,2-a]pyridin-6-yl)-5-(1-methyl-1H-pyrazol-4-yl)thieno[3,2-b]pyridine], for which the half-maximal inhibitory concentration (IC50) was in the range of 20 to 99 nM. The figure for `Cn1ccc(CNc2ccc3scc(-c4ccncc4)c3n2)n1` [Preparative Example 108, N-((1-methyl-1H-pyrazol-3-yl)methyl)-3-(pyridin-4-yl)thieno[3,2-b]pyridin-5-amine] is 3000 to 10000 nM; for `Cn1cc(-c2ccc3scc(-c4ccnc(N)c4)c3n2)cn1` [Preparative Example 25, 4-(5-(1-methyl-1H-pyrazol-4-yl)thieno[3,2-b]pyridin-3-yl)pyridin-2-amine] it is 20 to 99 nM; for `COC(=O)c1cn(C)nc1Nc1ccc2scc(-c3ccnc(CN)c3)c2n1` [Preparative Example 128, Methyl 3-((3-(2-(aminomethyl)pyridin-4-yl)thieno[3,2-b]pyridin-5-yl)amino)-1-methyl-1H-pyrazole-4-carboxylate] it is 3000 to 10000 nM. The result for `Cn1cc(-c2ccc3scc(-c4ccc(F)cc4)c3n2)cn1` [Preparative Example 6, 3-(4-fluorophenyl)-5-(1-methyl-1H-pyrazol-4-yl)-thieno[3,2-b]pyridine] reads 100 to 499 nM; that for `Cn1cc(-c2ccc3scc(-c4ccc5ncncc5c4)c3n2)cn1` [Preparative Example 47, 5-(1-methyl-1H-pyrazol-4-yl)-3-(quinazolin-6-yl)thieno[3,2-b]pyridine], 100 to 499 nM; that for `Cn1cc(-c2ccc3scc(-c4cnc5ccnn5c4)c3n2)cn1` [Preparative Example 55, 5-(1-methyl-1H-pyrazol-4-yl)-3-(pyrazolo[1,5-a]-pyrimidin-6-yl)thieno[3,2-b]pyridine], 100 to 499 nM.

`Cn1nc(Nc2ccc3scc(-c4ccncc4)c3n2)cc1N` [Preparative Example 104, 1-methyl-N3-(3-(pyridin-4-yl)thieno[3,2-b]pyridin-5-yl)-1H-pyrazole-3,5-diamine]: the IC50 is 500 to 3000 nM. The figure for `c1cncc(-c2ccc3scc(-c4ccc5ncnn5c4)c3n2)c1` [Preparative Example 131, 3-([1,2,4]triazolo[1,5-a]pyridin-6-yl)-5-(pyridin-3-yl)thieno[3,2-b]pyridine] is 100 to 499 nM. The figure for `Cn1ccc(Sc2ccc3scc(-c4ccncc4)c3n2)n1` is 500 to 3000 nM. Consider `Cn1cc(-c2ccc3scc(-c4ccnc5[nH]ccc45)c3n2)cn1` [Preparative Example 45, 5-(1-methyl-1H-pyrazol-4-yl)-3-(1H-pyrrolo[2,3-b]pyridin-4-yl)thieno[3,2-b]pyridine], for which the IC50 was 100 to 499 nM.
